Data from patent US20020111386A1, “Apparatus for pulmonary delivery of drugs with simultaneous liquid lavage and ventilation” (priority 1989, published 2002).

Tested on: anesthetized and tracheotomized young cats
Experiment: Pulmonary administration of drugs dispersed in PFC liquid during liquid ventilation: cardiovascular and airway smooth muscle effects
Type: in vivo, cat
Conditions: for effect on airway on addition to perfluorocarbon ventilation liquid: added to a perfluorocarbon ventilation liquid
Experimental: When testing the dose-dependency effect of the pulmonary administration of acetylcholine [ACh], the effect after the administration of the drug (expressed as a percentage of the baseline), as a function of the concentration of the drug, was monitored.
Here, the ACh was dispersed in the PFC liquid medium. The initial amount of ACh dispersed in the PFC liquid was 0.01 mg per each kilogram of the laboratory animal's body weight.
Each of the animals tested had at least one of the following parameters recorded before, during and after the pulmonary administration of the drug: (a) heart rate (bpm), (b) mean arterial pressure (mm Hg), and (c) tracheal pressure (cm water). The averages for each of these recorded parameters were then calculated, depending upon the number of cats tested. These calculated values are plotted on the graph in FIG. 35.
In addition to the above, the following parameters were also monitored and/or controlled: tidal volume, inspiratory and expiratory liquid flow rate, arterial chemistry, pulmonary compliance and resistance, and/or breathing frequency.
For each incremental increase, the animals tested had at least one of the aforementioned parameters recorded before and after the pulmonary administration of the drug.
Also for each incremental increase, the averages for each recorded parameter were calculated and plotted on the graph in FIG. 35.
Another way in which the effect of the pulmonary administration of ACh was tested was by monitoring carotid pressure, as a function of time, before, during and after the pulmonary administration of the drug. Here, 0.6 mg/kg of Ach was dispersed in the PFC liquid medium.
Yet another way in which the effect of the pulmonary administration of ACh was tested was by monitoring tracheal pressure, as a function of time, before, during and after the pulmonary administration of the drug.
Here, 0.6 mg/kg of ACh was dispersed in the PFC liquid medium.
When testing the dose-dependency effect of the pulmonary administration of epinephrine [Epi], the effect after the administration of the drug (expressed as a percentage of the baseline), as a function of the concentration of the drug, was monitored.
Here, the Epi was dispersed in the PFC liquid medium. The initial amount of Epi dispersed in the PFC liquid was 0.01 mg Per each kilogram of the laboratory animal's body weight.
Each of the animals tested had at least one of the following parameters recorded before and after the pulmonary administration of the drug: (a) heart rate (bpm), (b) mean arterial pressure (mm Hg), and (c) tracheal pressure (cm water). The averages for each of these recorded parameters were then calculated, depending upon the number of cats tested. These calculated values are plotted on the graph in FIG. 36.
Also for each incremental increase, the averages for each recorded parameter were calculated and plotted on the graph in FIG. 36.
Another way in which the effect of the pulmonary administration of Epi was tested was by monitoring the change in mean arterial pressure and heart rate resulting from drug delivery.
Here, 0.50 mg/kg of Epi was dispersed in the PFC liquid medium.
When testing the dose-dependency effect of the pulmonary administration of priscoline [P], the effect after the administration of the drug (expressed as a percentage of the baseline), as a function of the concentration of the drug, was monitored.
Here, the P was dispersed in the PFC liquid medium. The initial amount of P dispersed in the PFC liquid was 4 mg.
Each of the animals tested weighed approximately 3 kg. Each of these test animals had at least one of the following parameters recorded before and after the pulmonary administration of the drug: (a) heart rate (bpm), (b) mean arterial pressure (mm Hg), and (c) right ventricular pressure.
The averages for each of the aforementioned recorded parameters were then calculated, depending upon the number of cats tested. These calculated values are plotted on the graph in FIG. 37. […]

[1] = P 4 mg to 12 mg in inspired PFC liquid, animals approx. 3 kg, FIG. 37
[2] = Epi 0.01 to 1.0 mg/kg in inspired PFC liquid, FIG. 36

CC(=O)OCC[N+](C)(C)C [ACh, acetylcholine]
increase in tracheal pressure after drug administration (0.6 mg/kg ACh in PFC liquid): about 6 mm Hg
total time necessary to decrease the carotid pressure by about 40 mm Hg (0.6 mg/kg ACh in PFC liquid): about 10 seconds
total time necessary to increase the tracheal pressure (cm water) by about 5 mm Hg (0.6 mg/kg ACh in PFC liquid): about 20 seconds
decrease in carotid pressure after drug administration (0.6 mg/kg ACh in PFC liquid, via endotracheal tube): about 40 mm Hg

c1ccc(CC2=NCCN2)cc1 [P, priscoline]
decrease in carotid pressure after drug administration (12 mg P in PFC liquid): about 30 mm Hg
onset of decrease in carotid pressure after administration (12 mg P in PFC liquid): almost instantaneously
total time necessary to decrease the carotid pressure by about 30 mm Hg (12 mg P in PFC liquid): about 10 seconds
heart rate, dose-dependent response (percentage of baseline) [1]: remained fairly constant
mean arterial pressure, dose-dependent response (percentage of baseline) [1]: decreases
right ventricular pressure, dose-dependent response (percentage of baseline) [1]: decreases

CNC[C@H](O)c1ccc(O)c(O)c1 [Epi, epinephrine]
decrease in tracheal pressure after drug administration (0.50 mg/kg Epi in PFC liquid): 31%
increase in heart rate after drug administration (0.50 mg/kg Epi in PFC liquid): 33%
heart rate, dose-dependent response (percentage of baseline) [2]: increases
mean arterial pressure, dose-dependent response (percentage of baseline) [2]: increases
peak tracheal pressure, dose-dependent response (percentage of baseline) [2]: decrease
effect on airway on addition to perfluorocarbon ventilation liquid: Airway dilation

CC(C)NCC(O)c1ccc(O)c(O)c1 (centres unmarked) [isoproterenol]
effect on airway on addition to perfluorocarbon ventilation liquid: Airway dilation
